Measured values: patent US7919525B2, “Radiation protection by gamma-tocotrienol” (priority 2003, dated 2011)

Key:
Assay type in all cases: in vivo
[1] = tested on: CD2F1 male mice; test: 30-day survival of mice given succinate ester orally before Cobalt-60 irradiation; conditions: 9.5 Gy Cobalt-60, 0.6 Gy/min; oral 0.1 ml of 200 unit/ml 20-24 hours before irradiation
Protocol: (§1) After radiation, mice were returned to their original cages with free access to food and water. Mice were weighed and monitored for survivors everyday for 30 days. Percentages of survivors at the end of 30 days are used as a measure of the efficacy of γ-tocotrienol in protecting from radiation damage.
0.5 g TS (Sigma, 1210 units/g) was sonicated with 2.85 ml PEG-400 (polyethylene glycol-400) and 0.15 ml of vital-E-placebo, a solubilizing agent (Schering-Plough). The final concentration of TS in the prepared solution is 200 units/ml. At a dose of 800 unit/kg, 1 ml of the prepared solution as described above is sufficient for 8 mice. Vehicle for injection into control mice was prepared exactly as for TS except that 0.5 ml of olive oil was used instead of TS.
Each animal was orally administered 0.1 ml of TS solution (200 unit/ml) or vehicle by using feeding needles with a blobbed head. All administrations were done 20-24 hours before irradiation.
Animals were then placed in well-ventilated Lucite boxes (eight animals in a compartmentalized box) and irradiated in a Cobalt-60 facility at a radiation dose rate of 0.6 Gy/min for total radiation doses of 9, 9.5, and 10 Gy. The radiation doses 9.5 and 10 Gy used are lethal doses. […]
The efficacy of α-tocopherol succinate in protecting from radiation damage is monitored as described in Example 4. […]

[2] = tested on: CD2F1 male mice; test: 30-day survival of mice injected s.c. before lethal Cobalt-60 irradiation; conditions: for protective efficacy at higher radiation dose (in words): 11 Gy; for survival at 30 days after irradiation: s.c. injection 20-24 hours before irradiation
Protocol: CD2F1 male mice, 6-8 weeks old (approximately 25 g), procured from Jackson Labs were used throughout this study and were kept in rooms maintained at 21±0.5° C. Animals on arrival were maintained in quarantine for 10 days during which time serological testing was done for contamination by pathogens. All animals were provided with pellet diet and water ad lib.
A preparation of γ-tocotrienol in a final volume of 1 ml was made by mixing 0.11 ml of γ-tocotrienol with 0.85 ml PEG-400 (polyethylene glycol-400) and 0.05 ml of vital-E-placebo, a solubilizing agent (Schering-Plough). 1 ml of the preparation is sufficient for 8 mice. Final concentration of γ-tocotrienol is 100 mg/ml. Vehicle for injection into control animals was prepared exactly as for γ-tocotrienol except that 0.11 ml of olive oil was used instead of γ-tocotrienol.
(§2) Each animal was injected subcutaneously (at the nape of the neck) with 0.1 ml of either γ-tocotrienol or vehicle preparation. Injections were done 20-24 hours before irradiation.
(§3) Animals were placed in well-ventilated Lucite boxes (8 animals in a compartmentalized box) and irradiated in a Cobalt-60 facility at a radiation dose rate of 0.6 Gy/min for a total radiation dose of 10.5 and 11 Gy. The radiation dose used is a super lethal dose. The LD50/30 radiation dose for this strain of mice is 8.9 Gy with the vehicle alone. The radiation dose and dose rate were the same that had been used for α-tocopherol studies.
as §1

[3] = tested on: CD2F1 male mice; test: Body weight of mice after irradiation at 10.5 Gy; conditions: 0.6 Gy per minute, s.c.
Protocol: as §2, §3, §1
Among the different treatment groups, the untreated mice (Untr, Irrad) and the mice treated with vehicle (Vehicle) started to loose weight again from around day 9 and died by day 15.

[4] = experiment 1, 10.5 Gy Cobalt-60, 0.6 Gy/min, 8 mice
[5] = experiment 2, 10.5 Gy Cobalt-60, 0.6 Gy/min, 8 mice

| Compound | survival at 30 days after irradiation [1] | protection less than that of γ-tocotrienol ([2]; 10.5 Gy) | protective efficacy at higher radiation dose (in words) [2] | survival at 30 days after irradiation ([2]; 11 Gy Cobalt-60, 0.6 Gy/min) | survival at 30 days after irradiation [2, 4] | survival at 30 days after irradiation [2, 5] | protection higher than with α-tocopherol ([2]; 10.5 Gy, both experiments) | survival after irradiation, both experiments together ([2]; 10.5 Gy, given before irradiation) | body weight course after irradiation (in words) [3] |
| --- | --- | --- | --- | --- | --- | --- | --- | --- | --- |
| Cc1c(C)c2c(c(C)c1OC(=O)CCC(=O)O)CC[C@@](C)(CCC[C@H](C)CCC[C@H](C)CCCC(C)C)O2 [α-tocopherol succinate] | 60% | – | – | – | – | – | – | – | – |
| Cc1c(C)c2c(c(C)c1O)CC[C@@](C)(CCC[C@H](C)CCC[C@H](C)CCCC(C)C)O2 [α-tocopherol, reference compound] | – | 25% | not effective | no survivors | 75% | 50% | – | – | – |
| γ-tocotrienol | – | – | better radioprotectant than α-tocopherol | 40% | 100% | 75% | 25% | 75%-100 | continued to gain weight and did not die from the irradiation |
